In ChEMBL document CHEMBL3639017, “Thiazolyl mGluR5 antagonists and methods for their use” (2013) one finds Ki data, which are given here for one compound.

For the test, the target named is Metabotropic glutamate receptor 5 (Rattus norvegicus, UniProt P31424). In words: Binding Assay: Binding assays were performed as described in Schaffhauser H, Richards J G, Cartmell J, Chaboz S, Kemp J A, Klingelschmidt A, Messer J, Stadler H, Woltering T and Mutel V (1998) In vitro binding characteristics of a new selective group II metabotropic glutamate receptor radioligand, [3H]LY354740, in rat brain. Mol Pharmacol 53:228-233) at room temperature with slight modifications. The class given is tissue-based.
Sequence of Metabotropic glutamate receptor 5 (P31424 whole entry): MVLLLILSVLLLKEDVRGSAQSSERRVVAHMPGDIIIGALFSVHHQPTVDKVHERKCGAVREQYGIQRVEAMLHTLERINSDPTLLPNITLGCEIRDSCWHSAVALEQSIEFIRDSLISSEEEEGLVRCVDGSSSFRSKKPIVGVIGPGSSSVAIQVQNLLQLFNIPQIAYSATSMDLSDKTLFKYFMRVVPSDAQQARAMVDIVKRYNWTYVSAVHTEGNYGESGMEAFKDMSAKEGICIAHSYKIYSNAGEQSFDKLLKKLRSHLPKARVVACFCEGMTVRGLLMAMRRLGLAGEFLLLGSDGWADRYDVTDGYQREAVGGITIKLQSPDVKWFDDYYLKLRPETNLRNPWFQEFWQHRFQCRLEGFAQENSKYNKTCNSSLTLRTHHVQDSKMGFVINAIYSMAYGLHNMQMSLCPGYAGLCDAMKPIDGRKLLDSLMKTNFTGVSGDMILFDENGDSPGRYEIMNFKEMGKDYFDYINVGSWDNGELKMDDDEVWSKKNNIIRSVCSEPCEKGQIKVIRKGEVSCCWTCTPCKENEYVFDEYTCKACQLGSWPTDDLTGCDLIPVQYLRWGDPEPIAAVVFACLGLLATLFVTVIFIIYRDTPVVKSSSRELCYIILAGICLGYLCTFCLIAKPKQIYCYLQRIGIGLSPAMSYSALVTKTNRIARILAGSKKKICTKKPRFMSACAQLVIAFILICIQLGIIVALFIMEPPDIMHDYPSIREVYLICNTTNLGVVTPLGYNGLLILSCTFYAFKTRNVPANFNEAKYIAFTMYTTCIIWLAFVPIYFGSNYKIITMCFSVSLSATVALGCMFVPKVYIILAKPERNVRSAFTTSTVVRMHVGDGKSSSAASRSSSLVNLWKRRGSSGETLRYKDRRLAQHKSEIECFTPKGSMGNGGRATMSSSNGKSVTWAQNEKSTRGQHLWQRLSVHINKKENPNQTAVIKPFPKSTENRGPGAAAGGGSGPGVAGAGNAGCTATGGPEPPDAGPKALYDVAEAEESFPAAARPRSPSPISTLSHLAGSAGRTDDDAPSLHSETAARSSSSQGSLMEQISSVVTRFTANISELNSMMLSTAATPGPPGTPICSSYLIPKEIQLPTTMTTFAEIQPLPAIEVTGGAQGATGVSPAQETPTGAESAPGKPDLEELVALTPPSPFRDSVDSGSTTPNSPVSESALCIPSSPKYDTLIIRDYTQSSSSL

SMILES strings stand for the structures.

`Cc1nc(C#Cc2ccc(-c3ccccc3C#N)nc2)cs1` came in with a Ki of 2.6 nM.

By Ki is commonly meant the equilibrium dissociation constant of an inhibitor or competing ligand from its target.
